Laboratory results taken from US20060205743A1, “Protein kinase inhibitors” (priority 2003, published 2006).

Molecular target: MAPKAP-K2 (Homo sapiens, UniProt P49137)
Assay: MAPKAP-Kinase 2 Assay (33P-ATP peptide phosphorylation, filter plate)
Format: biochemical
Parameters: key: +: active; ++: more active; +++: very active
Conditions: assays conducted at typically 1-100 μM
Method: MAPKAP-Kinase 2 Assay [Compound Preparation]
Compounds are dissolved in DMSO at a concentration of 3 mM and stored in aliquots at −20° C. Compounds in DMSO from these stock aliquots are diluted in 30% DMSO to produce initial working stock solutions of 1 mM and 3 mM. Both of these stock solutions are then subjected to 1:10 serial dilutions in 30% DMSO in order to prepare 3000, 1000, 300, 100, 30, 10, 3, 1, 0.1, 0.01 μM stock solutions. 5 μl of each stock solution is used per 50 μl reaction to give final assay concentrations of 300, 100, 30, 10, 3, 1, 0.3, 0.1, 0.01, 0.001 μM.
The kinase reaction is conducted in a round-bottomed polypropylene 96-well plate. MAPKAP-K2 is diluted to 25 mU/μl in diluent buffer (50 mM Tris/HCl. pH7.5, 0.1 mM EGTA, 0.1% (v/v) β-mercaptoethanol, 1 mg/ml BSA). 5 μl compound or 30% DMSO is added to each well followed by 25 μl substrate cocktail (10 μM ATP, 30 μM peptide (KKLNRTLSVA), 0.5 μCi ^33P-γ-ATP in 50 mM Tris pH7.5, 0.1 mM EGTA, 10 mM Mg-acetate, 0.1% BME). The reaction is initiated with the addition of 20 μl enzyme solution per well or 20 μl diluent buffer without enzyme. The plate is shaken for 10 sec and then left at room temperature for 30 min. The reaction is terminated with 50 μl 150 mM phosphoric acid. 90 μl of the reaction mixture is then transferred into a 96-well P81 filter plate (Millipore) and incubated at room temperature for 5 min. The filter plate is then washed 4 times with 200 μl 75 mM phosphoric acid per well on a plate vacuum manifold (Millipore) and dried in an oven for 2-3 h. Packard MicroScint ‘0’ (30 μl) is then added to each well, the plate is mixed for 30 min and subjected to liquid scintillation counting on a Packard TopCount.
[Interpretation] %Control=(X−B)/(Tot−B)×100 %Inhibition=100−% Control X=cpm of the test compound wells B=cpm of wells without enzyme Tot=cpm of wells with DMSO vehicle only

MAPKAP-K2, sequence (P49137 whole entry): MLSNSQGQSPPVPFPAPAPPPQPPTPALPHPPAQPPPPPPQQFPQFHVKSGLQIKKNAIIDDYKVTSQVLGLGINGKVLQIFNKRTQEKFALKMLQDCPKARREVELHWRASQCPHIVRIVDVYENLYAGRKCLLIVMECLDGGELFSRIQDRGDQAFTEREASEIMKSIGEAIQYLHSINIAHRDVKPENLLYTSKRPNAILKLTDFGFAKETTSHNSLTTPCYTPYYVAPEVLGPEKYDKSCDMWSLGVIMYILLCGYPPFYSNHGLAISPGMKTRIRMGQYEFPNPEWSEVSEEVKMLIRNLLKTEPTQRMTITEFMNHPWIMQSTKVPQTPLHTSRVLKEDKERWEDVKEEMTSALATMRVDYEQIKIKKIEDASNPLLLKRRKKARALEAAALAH

Fc1ccc(Nc2cc(NC3CCNC3)nc3ccnn23)cc1Cl (centres unmarked) [Compound 73]
MAPKAP-K2 activity: ++

Fc1ccc(Nc2cc(NC3CCCNC3)nc3ccnn23)cc1Cl (centres unmarked) [Compound 74]
MAPKAP-K2 activity: +++

Cc1ccc(C)c(Nc2cc(N[C@H]3CC[C@H](N)CC3)nc3ccnn23)c1 [Compound 75]
MAPKAP-K2 activity: +++

Cc1cccc(Nc2cc(N[C@H]3CC[C@H](N)CC3)nc3ccnn23)c1C [Compound 76]
MAPKAP-K2 activity: +++

Cc1ccc(Nc2cc(N[C@H]3CC[C@H](N)CC3)nc3ccnn23)cc1C [Compound 77]
MAPKAP-K2 activity: +++

NCCCCNc1cc(Nc2ccc(F)c(Cl)c2)n2nccc2n1 [Compound 78]
MAPKAP-K2 activity: +

N#C/N=C(\N)NC1CCC(Nc2cc(Nc3ccc(F)c(Cl)c3)n3nccc3n2)CC1 (centres unmarked) [Compound 79]
MAPKAP-K2 activity: ++

CN(CCN)c1cc(Nc2ccc(F)c(Cl)c2)n2nccc2n1 [Compound 80]
MAPKAP-K2 activity: +

Fc1ccc(Nc2cc(N3CCNCC3)nc3ccnn23)cc1Cl [Compound 81]
MAPKAP-K2 activity: +

NC1CCN(c2cc(Nc3ccc(F)c(Cl)c3)n3nccc3n2)C1 (centres unmarked) [Compound 82]
MAPKAP-K2 activity: +

N[C@H]1CC[C@H](Nc2cc(Nc3cccc(Br)c3)n3nccc3n2)CC1 [Compound 83]
MAPKAP-K2 activity: +++

NC1CCC(Nc2cc(Nc3ccc(Br)cc3)n3nccc3n2)CC1 (centres unmarked) [Compound 84]
MAPKAP-K2 activity: +++

NC1CCC(Nc2cc(Nc3ccc(I)cc3)n3nccc3n2)CC1 (centres unmarked) [Compound 85]
MAPKAP-K2 activity: +++

CNCCNc1cc(Nc2ccc(F)c(Cl)c2)n2nccc2n1 [Compound 86]
MAPKAP-K2 activity: ++

CN[C@H]1CC[C@H](Nc2cc(Nc3ccc(F)c(Cl)c3)n3nccc3n2)CC1 [Compound 87]
MAPKAP-K2 activity: +++

Fc1ccc(Nc2cc(NC3CCNCC3)nc3ccnn23)cc1Cl [Compound 88]
MAPKAP-K2 activity: ++

CCN[C@H]1CC[C@H](Nc2cc(Nc3ccc(F)c(Cl)c3)n3nccc3n2)CC1 [Compound 89]
MAPKAP-K2 activity: +++

N[C@H]1CC[C@H](Nc2cc(NCc3ccccn3)n3nccc3n2)CC1 [Compound 90]
MAPKAP-K2 activity: ++

NC1CCC(Nc2cc(Nc3ccc(C(F)(F)F)cc3Cl)n3nccc3n2)CC1 (centres unmarked) [Compound 91]
MAPKAP-K2 activity: +++

NC1CCC(Nc2cc(Nc3ccccc3C(F)(F)F)n3nccc3n2)CC1 (centres unmarked) [Compound 93]
MAPKAP-K2 activity: ++

NCCCNc1cc(Nc2ccc(F)c(Cl)c2)n2nccc2n1 [Compound 94]
MAPKAP-K2 activity: +

NC1CCN(c2cc(Nc3ccc(F)c(Cl)c3)n3nccc3n2)CC1 [Compound 95]
MAPKAP-K2 activity: +

COc1ccccc1Nc1cc(NC2CCCNC2)nc2ccnn12 (centres unmarked) [Compound 96]
MAPKAP-K2 activity: ++

COc1cccc(Nc2cc(NC3CCCNC3)nc3ccnn23)c1 (centres unmarked) [Compound 97]
MAPKAP-K2 activity: +++

c1ccc(COc2cccc(Nc3cc(NC4CCCNC4)nc4ccnn34)c2)cc1 (centres unmarked) [Compound 98]
MAPKAP-K2 activity: +++

COc1ccc(Cl)c(Nc2cc(NC3CCC(N)CC3)nc3ccnn23)c1 (centres unmarked) [Compound 99]
MAPKAP-K2 activity: +++

NC1CCC(Nc2cc(Nc3ccccc3I)n3nccc3n2)CC1 (centres unmarked) [Compound 101]
MAPKAP-K2 activity: +++

NC1CCC(Nc2cc(Nc3ccccc3Br)n3nccc3n2)CC1 (centres unmarked) [Compound 102]
MAPKAP-K2 activity: +++

COc1ccc(Nc2cc(NC3CCC(N)CC3)nc3ccnn23)c(OC)c1OC (centres unmarked) [Compound 103]
MAPKAP-K2 activity: ++

CCCCOc1ccc(Nc2cc(NC3CCC(N)CC3)nc3ccnn23)cc1 (centres unmarked) [Compound 104]
MAPKAP-K2 activity: +++

CCOc1cccc(Nc2cc(NC3CCCNC3)nc3ccnn23)c1 (centres unmarked) [Compound 105]
MAPKAP-K2 activity: +++

Ic1ccc(Nc2cc(NC3CCCNC3)nc3ccnn23)cc1 (centres unmarked) [Compound 106]
MAPKAP-K2 activity: +++

NC1CCC(Nc2cc(Nc3ccc(OC(F)(F)F)cc3Cl)n3nccc3n2)CC1 (centres unmarked) [Compound 107]
MAPKAP-K2 activity: +++

NC1CCC(Nc2cc(Nc3ccc(F)cc3Cl)n3nccc3n2)CC1 (centres unmarked) [Compound 108]
MAPKAP-K2 activity: +++

NC1CCC(Nc2cc(Nc3c(F)cccc3F)n3nccc3n2)CC1 (centres unmarked) [Compound 109]
MAPKAP-K2 activity: +++
